Where “and” joins values, the source holds several entries; their conditions need not be identical. Equal entries are not always repeated.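 Following 48 hours of exposure in 96-well plates, responses at five concentrations were used to interpolate endpoints linearly. Here, GI50 denotes the concentration required for 50% inhibition of growth. At the TGI there is no net growth.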
Assays:
Test in all cases: NCI tumour cell line growth inhibition, 48 h
[1] = tested on: A549 NSCLC
[2] = tested on: TK-10 renal
[3] = tested on: RPMI-8226 leukemia
[4] = tested on: SK-MEL-5 melanoma
[5] = tested on: RXF 393 renal
[6] = tested on: SNB-75 CNS
[7] = tested on: LXFL 529 NSCLC
[8] = tested on: OVCAR-8 ovarian
[9] = tested on: NCI-H23 lung
[10] = tested on: DMS 273 small cell lung
[11] = tested on: SK-MEL-28 melanoma
[12] = tested on: MALME-3M melanoma
[13] = tested on: CCRF-CEM leukemia
[14] = tested on: OVCAR-3 ovarian
[15] = tested on: KM20L2 colon
[16] = tested on: HOP-62 NSCLC
[17] = tested on: U251 CNS
[18] = tested on: SNB-19 CNS
[19] = tested on: HOP-18 NSCLC
[20] = tested on: RXF-631 renal
[21] = tested on: SK-OV-3 ovarian
[22] = tested on: A498 renal
[23] = tested on: SW-620 colon
[24] = tested on: HOP-92 NSCLC
[25] = tested on: NCI-H522 lung
[26] = tested on: SF-539 CNS
[27] = tested on: DLD-1 colon
[28] = tested on: HL-60(TB) leukemia
[29] = tested on: SF-268 CNS
[30] = tested on: M14 melanoma
[31] = tested on: HCT-116 colon
[32] = tested on: SF-295 CNS
[33] = tested on: ACHN renal
[34] = tested on: SNB-78 CNS
[35] = tested on: LOX IMVI melanoma
[36] = tested on: SN12C renal
[37] = tested on: HT29 colon
[38] = tested on: OVCAR-4 ovarian
[39] = tested on: 786-0 renal
[40] = tested on: HCT-15 colon
[41] = tested on: NCI-H226 lung
[42] = tested on: IGROV1 ovarian
[43] = tested on: SK-MEL-2 melanoma
[44] = tested on: COLO 205 colon
[45] = tested on: SR leukemia
[46] = tested on: CAKI-1 renal
[47] = tested on: M19-MEL melanoma
[48] = tested on: NCI-H460 lung
[49] = tested on: K-562 leukemia
[50] = tested on: DMS 114 small cell lung
[51] = tested on: HCC-2998 colon
[52] = tested on: MOLT-4 leukemia
[53] = tested on: UACC-62 melanoma
[54] = tested on: EKVX NSCLC
[55] = tested on: KM12 colon
[56] = tested on: OVCAR-5 ovarian
[57] = tested on: XF 498 CNS
[58] = tested on: UO-31 renal
[59] = tested on: UACC-257 melanoma

With `CC(=O)OC1COC(N2CCc3ccccc32)C(OC(C)=O)C1OC(C)=O` (stereo not given) the TGI [1] was greater than 100 µM, the TGI [2] was greater than 100 µM and the TGI [3] was greater than 100 µM. The TGI [4] was greater than 100 µM, the TGI [5] was greater than 100 µM and the GI50 [6] was greater than 100 µM. It also gave a TGI [6] greater than 100 µM, a TGI [7] greater than 100 µM and a TGI [8] greater than 100 µM. For the same molecule, the TGI [9] was greater than 100 µM, the TGI [10] was greater than 100 µM and the TGI [11] was greater than 100 µM. For the same molecule, the TGI [12] was greater than 100 µM, the TGI [13] was greater than 100 µM and the TGI [14] was greater than 100 µM. It also gave a TGI [15] greater than 100 µM, a TGI [16] greater than 100 µM and a TGI [17] greater than 100 µM. The TGI [18] was greater than 100 µM, the TGI [19] was greater than 100 µM and the TGI [20] was greater than 100 µM. For the same molecule, the TGI [21] was greater than 100 µM, the TGI [22] was greater than 100 µM and the TGI [23] was greater than 100 µM. It also gave a GI50 [24] greater than 100 µM, a TGI [24] greater than 100 µM and a TGI [25] greater than 100 µM. For the same molecule, the TGI [26] was greater than 100 µM, the TGI [27] was greater than 100 µM and the GI50 [28] was 89.3 µM and 28.2 µM. It also gave a TGI [28] greater than 100 µM, a TGI [29] greater than 100 µM and a TGI [30] greater than 100 µM. The TGI [31] was greater than 100 µM, the TGI [32] was greater than 100 µM and the TGI [33] was greater than 100 µM. It also gave a TGI [34] greater than 100 µM, a TGI [35] greater than 100 µM and a TGI [36] greater than 100 µM. The TGI [37] was greater than 100 µM, the TGI [38] was greater than 100 µM and the TGI [39] was greater than 100 µM. For the same molecule, the TGI [40] was greater than 100 µM, the TGI [41] was greater than 100 µM and the TGI [42] was greater than 100 µM. For the same molecule, the TGI [43] was greater than 100 µM, the TGI [44] was greater than 100 µM and the TGI [45] was greater than 100 µM. It also gave a TGI [46] greater than 100 µM, a TGI [47] greater than 100 µM and a TGI [48] greater than 100 µM. For the same molecule, the TGI [49] was greater than 100 µM, the TGI [50] was greater than 100 µM and the TGI [51] was greater than 100 µM. The TGI [52] was greater than 100 µM, the TGI [53] was greater than 100 µM and the TGI [54] was greater than 100 µM. It also gave a TGI [55] greater than 100 µM, a TGI [56] greater than 100 µM and a TGI [57] greater than 100 µM. It also gave a TGI [58] greater than 100 µM and a TGI [59] greater than 100 µM.

Molecule `Cc1ccc(NC(=O)OCC(COc2ccc(Cl)cc2)OC(=O)Nc2ccc(C)cc2)cc1` (stereo not given) has a TGI [1] greater than 100 µM, a TGI [2] of 96.9 µM and a TGI [3] greater than 100 µM. The TGI [4] was greater than 100 µM, the TGI [5] was 43.1 µM and the TGI [6] was 36.9 µM. The TGI [7] was greater than 100 µM, the TGI [8] was greater than 100 µM and the TGI [9] was greater than 100 µM. The TGI [10] was 66.4 µM, the TGI [11] was greater than 100 µM and the TGI [12] was 54.2 µM. For the same molecule, the TGI [13] was greater than 100 µM, the TGI [14] was 61.8 µM and the TGI [15] was greater than 100 µM. The TGI [16] was greater than 100 µM, the TGI [17] was greater than 100 µM and the TGI [18] was 57.3 µM. The TGI [19] was greater than 100 µM, the TGI [20] was 24.9 µM and the TGI [21] was greater than 100 µM. It also gave a TGI [22] of 60.4 µM, a TGI [23] greater than 100 µM and a TGI [24] of 31 µM. The TGI [25] was greater than 100 µM, the TGI [26] was 52.3 µM and the TGI [27] was greater than 100 µM. The TGI [28] was 27.9 µM, the TGI [29] was greater than 100 µM and the TGI [30] was 63.8 µM. For the same molecule, the TGI [31] was greater than 100 µM, the TGI [32] was 80.6 µM and the TGI [33] was greater than 100 µM. The TGI [34] was 82.5 µM, the TGI [35] was 96.9 µM and the TGI [36] was greater than 100 µM. It also gave a TGI [37] of 71.7 µM, a TGI [38] of 73.6 µM and a TGI [40] greater than 100 µM. For the same molecule, the TGI [41] was 67.9 µM, the TGI [42] was greater than 100 µM and the TGI [43] was 58.4 µM. The TGI [44] was greater than 100 µM, the TGI [45] was greater than 100 µM and the TGI [46] was 57 µM. The TGI [47] was greater than 100 µM, the TGI [48] was greater than 100 µM and the TGI [49] was 60.4 µM. For the same molecule, the TGI [50] was 98.8 µM, the TGI [51] was greater than 100 µM and the TGI [52] was greater than 100 µM. For the same molecule, the TGI [53] was greater than 100 µM, the TGI [54] was greater than 100 µM and the TGI [55] was greater than 100 µM. The TGI [56] was greater than 100 µM, the TGI [57] was 86.7 µM and the TGI [58] was greater than 100 µM. For the same molecule, the TGI [59] was greater than 100 µM.
